Experimental data: patent US20110177156A1, “Sterol-Modified Amphiphilic Lipids” (priority 2007, published 2011)
Where two headings read alike, the source gives them in different places.

Key:
[1] = Cholesterol exchange from donor liposomes to POPC acceptor liposomes at 37° C.; format: physicochemical; settings: for exchange of cholesterol out of donor liposomes: PChcPC/DPPC/DPPG (50/40/10), DChcPC/DPPC/DPPG (25/65/10), POPC acceptor
Description: Unilamellar liposomes were prepared by extrusion method. […] Specifically, the three donor liposomes were formulated at the following molar ratios: 1) […] (50/40/10), 2) […] (25/65/10), 3) Chol/DPPC/DPPG (40/50/10). Neutral 1-palmitoyl-2-oleoyl-sn-glycero-3-phosphocholine (POPC) liposome was used as the acceptor. After extrusion, the diameter of the donor liposomes was around 100 nm, and 140 nm for the acceptor liposome. For the exchange experiments, 1 mL donor liposomes (10 mM) and 1 mL acceptor liposomes (100 mM, 10 fold) were warmed at 37° C. first, then mixed and incubated at 37° C. An aliquot (250 μL) of mixture was sampled at given time point and applied to a small (ca. 1 cm in length) anion exchange column (Q-Sepharose XL). The column was pretreated with 0.1 mL 10 mM POPC before the loading of the exchange sample to reduce the nonspecific binding of the neutral liposome. The column was eluted with 1 mL 10 mM NaCl, 10 mM HEPES pH 7.4 buffer. The eluate was lyophilized and analyzed by the cholesterol assay to quantify the amount of cholesterol exchanged.

[2] = SML:PC:AmB=2:2:1 (mole) liposomes, stored at 4° C.
Description: First, the chloroform solution of SML/diacyl PC lipids mixture at given ratio were evaporated, and lipid film was placed under high vacuum overnight. Given amount of amphotericin B DMSO solution (20 mg/mL) was then added to the lipid film followed by the addition of pH 7.4 PBS. The mixture was sonicated under argon at 60° C. for 1 hour. The mixture was then dialyzed against pH 7.4 PBS. The yellow solution obtained was sterilized by filtering through 220 nm membrane. Products were stored at 4° C. for future study.

[3] = Differential scanning calorimetry of SMLs and SML/diacyl lipid mixtures; format: physicochemical
Text: Specific SMLs were used as the model compounds to study the properties of the SML compounds. Phase behavior is one of the most important properties of lipid bilayers and is associated with various biological functions of cell membranes. Addition of free cholesterol to the phospholipid bilayer will change the phase behavior of the bilayer due to the mixing of free cholesterol with the glycerolipids and sphingolipids as well as the effect the isoprenol tail of free cholesterol exerts on the acyl chain packing in the bilayer. Using differential scanning calorimetry it was shown that the SMLs exert a similar effect as free cholesterol on acyl chain packing in bilayers composed of synthetic lipids. […] The equivalent sterol molar percentage in the mixture of m-SML and diacyl lipid is calculated according to the method of conventional lipid mixture with the following formula: Sterol %=[…])×100, wherein: For example, a pure m-SML has one sterol and one acyl chain, thus the equivalent free sterol percentage is 1/1.5×100=67. […]

[4] = system: C26 colon carcinoma cells; settings: MTT, concentration as high as 1 mM
Description: The cytotoxicity of the SML lipids was evaluated with the standard MTT (3-(4,5-dimethylthiazolyl-2)-2,5-diphenyltetrazolium bromide) assay method. Briefly, C26 cells were incubated with lipids of various concentrations for a period of time at 37° C. Then the medium was replaced with the MTT working reagents, and the cells were incubated for another two hours. The reagents were then carefully removed. The converted dye was solubilized in acidic isopropanol. The absorbance of the dye was measured at 570 nm with background subtraction at 650 nm.

C26 colon carcinoma = assay: Survival of Balb/C mice tumored with C26 colon carcinoma after doxorubicin delivered in liposomes of various compositions; format: in vivo; settings: Dose of Dox 10 mg/kg, s.c. C26 tumors
Description: The effect of these formulations on tumor progression and animal survival were compared against the effect non-encapsulated doxorubicin or Doxil™, a commercial liposome formulation of doxorubicin that is approved by the Food and Drug Administration in the Balb/C mice tumored with C26 colon carcinoma. (FIGS. 8 and 9, Table 3).
Drug loaded liposomes of defined size were prepared by methods well known in the art and described in, for example, (Liposomes: 2nd edition, Oxford University Press, 2003, V. Torchilin and V. Weissig., Ed.). Lipid films were prepared by drying 10 μmoles of lipid mixtures dissolved in chloroform under a reduced pressure in glass tubes using a rotary evaporator at room temperature, followed by an overnight exposure to a high vacuum. Liposomes were prepared by rehydrating the thin lipid film above the transition temperature of the lipid in a sterile 250 mM ammonium sulfate solution in screw-capped glass tubes, followed by sonication in a bath type sonicator for 10 minutes at 60° C. The liposome preparation was then extruded through 0.1 micron polycarbonate membranes. […] Mean vesicle diameters as measured by dynamic light scattering using the multimodal program ranged between 85-140 nm with a monodisperse particle size distribution (Malvern Instruments, UK). […]
All animal experiments were performed in compliance with the NIH guidelines for animal research under a protocol approved by the Committee on Animal Research at the University of California, San Francisco. […] Mice were weighed and tumor sizes were monitored daily during the experimental period. The tumor volume was estimated by measuring three orthogonal diameters (a, b, and c) with calipers; the volume was calculated as (a×b×c)×0.5 cm^3. […] In each experiment the mice were monitored for up to 60 days post-inoculation or until one of the following conditions for euthanasia was met: 1) their body weight dropped below 15% of their initial mass; 2) their tumor was greater than 2.0 cm across in any dimension; 3) they became lethargic or sick and unable to feed; or 4) they were found dead. […]

[5] = format: physicochemical
Description: SML16m was designed to have a large surface area than conventional phospholipids by replacing of the hydrophobic lipid chain with an amphiphilic poly(ethylene glycol) chain. […] Unlike conventional amphiphilic molecules, SML16m solution doesn't foam when agitated, but forms a thin membrane along the glass wall above the solution surface. SML16m can effectively solubilize amphotericin B at molar ratios of 1:1 or higher to obtain a concentration of 5 mg/mL. SML16m can also be formulated with other lipids to achieve small liposomes.

[6] = calcein liposomes, 37° C., compared with DMPC liposomes
Description: The fluorescent dye calcein (2.49 g, 4 mmol) was dissolved in Tris-HCl buffer (10 mM, pH 7.5, 6 mL) after the addition of 50% sodium hydroxide (695 μL, 13.2 mmol). This stock solution was then loaded on a Sephadex LH-20 column (2.5 cm×40 cm) and eluted with Tris-HCl buffer (10 mM, pH 7.5). The concentration of pooled fraction of calcein was determined by measuring the absorbance (494 nm) of diluted sample at pH 9. The purified calcein (56 mM) was then encapsulated into the liposomes for the leakage assay. Generally, the dry lipid film (10 μmol) of given formulation was hydrated in 1 mL calcein containing buffer at 60° C. under argon for 15 min with intermittent vortex. […] The pooled liposome fractions were then analyzed to determine the calcein concentration, and diluted to the linear fluorescence range for leakage studies discussed below.
Liposomes used for this study were prepared according to the above mentioned method (Example 11) with high concentration content (56 mM calcein, 10 mM Tris, 711 mM NaCl), extruded through 100 nm membrane, and eluted with the isosmotic buffer (50 mM HEPES, 775 mM NaCl). […] Fluorescence signal at 517 nm (ext.: 494 nm) was read after 5 min equilibration by using a Quantech™ fluorometer (Barnstead/Thermolyne, Dubuque, Iowa). […] The fluorescence of the total calcein was measured and used as 100% signal (F100%). […]

[7] = Leakage of calcein from liposomes in 30% fetal bovine serum at 37° C.
Description: The purified calcein (56 mM) was then encapsulated into the liposomes for the leakage assay. Generally, the dry lipid film (10 μmol) of given formulation was hydrated in 1 mL calcein containing buffer at 60° C. under argon for 15 min with intermittent vortex. Then the sample was extruded through a polycarbonate membrane 11 times at 60° C. followed by passing a Sephadex G-50 column with the corresponding isosmotic eluent. The pooled liposome fractions were then analyzed to determine the calcein concentration, and diluted to the linear fluorescence range for leakage studies discussed below.
Calcein was encapsulated into the liposome by the method described above. Liposomes were extruded through 200 nm membrane and the free calcein was removed by passing the liposomes through the Sephadex G-50 column using HEPES buffer (10 mM HEPES, 140 mM NaCl, pH 7.4) as the isomotic eluent. Conventional liposome formulations containing 40% cholesterol (mole percent) were used as the control in the long term leakage assay. An aliquot of liposome sample (20-50 μL) was diluted by 30% fetal bovine serum to a total volume of 2 mL. Samples were then sealed in the glass tube and incubated at 37° C. Fluorescence intensities of samples were monitored at different time points and the fraction of calcein remaining in the liposome was determined by the similar method of osmotic stress induced leakage. […]

Molecule: CCCCCCCCCCCCCCCC(=O)OCC(COP(=O)([O-])OCC[N+](C)(C)C)OC(=O)OC1CCC2(C)C(=CCC3C2CCC2(C)C(C(C)CCCC(C)C)CCC32)C1 (centres unmarked) [SML5b, 1-Palmitoyl-2-cholesterylcarbonoyl-sn-glycero-3-phosphocholine]
- exchange of cholesterol out of donor liposomes [1]: very little or no detectable exchange of cholesterol
- stability of formulation at 4° C. [2]: more than one year

Molecule: CCCCCCCCCCCCCCOCC(COP(=O)([O-])OCC[N+](C)(C)C)OC(=O)OC1CCC2(C)C(=CCC3C2CCC2(C)C(C(C)CCCC(C)C)CCC32)C1 (racemic) [SML4c, 1-Myristyl-2-cholesterylcarbonoyl-rac-glycero-3-phosphocholine]
- stability of formulation at 4° C. [2]: more than one year

Molecule: CC(C)CCC[C@@H](C)[C@H]1CC[C@H]2[C@@H]3CC=C4C[C@@H](OC(=O)OC[C@H](COP(=O)([O-])OCC[N+](C)(C)C)OC(=O)O[C@H]5CC[C@@]6(C)C(=CC[C@H]7[C@@H]8CC[C@H]([C@H](C)CCCC(C)C)[C@@]8(C)CC[C@@H]76)C5)CC[C@]4(C)[C@H]3CC[C@]12C [SML6a, 1,2-Dicholesterylcarbonoyl-sn-glycero-3-phosphocholine]
- exchange of cholesterol out of donor liposomes [1]: very little or no detectable exchange of cholesterol
- new transition in DSC trace ([3]; DChcPC/DPPC mixtures, equivalent free cholesterol 30 mole percent): around 20 °C

Molecule: CCCCCCCCCCCCCCCCNC(=O)OC(COC(=O)OC1CCC2(C)C(=CCC3C2CCC2(C)C(C(C)CCCC(C)C)CCC32)C1)COP(=O)([O-])OCC[N+](C)(C)C (centres unmarked) [SML1b, 1-Cholesterycarbonoyl-2-palmitylcarbamoyl-sn-glycero-3-phosphocholine]
- cytotoxicity [4]: certain cytotoxicity

Molecule: COc1cccc2c1C(=O)c1c(O)c3c(c(O)c1C2=O)C[C@@](O)(C(=O)CO)C[C@@H]3O[C@H]1C[C@H](N)[C@H](O)[C@H](C)O1 [Free Dox, Doxorubicin]
- # of Animals Surviving at Day 60 (n = 5) (C26 colon carcinoma): 0
- Median Survival Day (C26 colon carcinoma): 26 days
- # of Animals Surviving at Day 60 (n = 5) (C26 colon carcinoma; listed as non-encapsulated doxorubicin): no animals survived to 60 days

Molecule: CCCCCCCCCCCCCCCCCCNC(=O)OC(COC(=O)OC1CCC2(C)C(=CCC3C2CCC2(C)C(C(C)CCCC(C)C)CCC32)C1)COP(=O)([O-])OCC[N+](C)(C)C (centres unmarked) [SML1a, 1-Cholesterylcarbonoyl-2-stearylcarbamoyl-sn-glycero-3-phosphocholine]
- cytotoxicity [4]: certain cytotoxicity

Molecule: 1-Cholesterylcarbonoyl-2-palmityl-rac-glycero-3-phosphocholine [SML2b]
- equivalent cholesterol at which the phase transition is eliminated completely ([3]; SML mixed with diacyl lipid of the same chain length (C-16)): 30%

Molecule: COCCOCCOCCOCCOCCOCCOCCOCCC(=O)O[C@H](COC(=O)CCC(=O)O[C@H]1CC[C@@]2(C)C(=CC[C@H]3[C@@H]4CC[C@H]([C@H](C)CCCC(C)C)[C@@]4(C)CC[C@@H]32)C1)COP(=O)([O-])OCC[N+](C)(C)C [SML16m, 1-cholesterylhemisuccinoyl-2-(2,5,8,11,14,17,20,23-octaoxahexacosan-26-oyl)-sn-glycero-3-phosphocholine]
- concentration of amphotericin B solubilized [5]: 5000 µg/mL
- solubility in water [5]: dissolves in water easily

Molecule: CCCCCCCCCCCCCCCCCC(=O)OCC(COP(=O)([O-])OCC[N+](C)(C)C)OC(=O)OC1CCC2(C)C(=CCC3C2CCC2(C)C(C(C)CCCC(C)C)CCC32)C1 (centres unmarked) [SML5a, 1-Stearoyl-2-cholesterylcarbonoyl-sn-glycero-3-phosphocholine]
- stability of formulation at 4° C. [2]: more than one year

Molecule: CCCCCCCCCCCCCCNC(=O)O[C@H](COC(=O)O[C@H]1CC[C@@]2(C)C(=CC[C@H]3[C@@H]4CC[C@H]([C@H](C)CCCC(C)C)[C@@]4(C)CC[C@@H]32)C1)COP(=O)([O-])OCC[N+](C)(C)C [SML1c, 1-Cholesterylcarbonoyl-2-myristylcarbamoyl-sn-glycero-3-phosphocholine]
- osmotic leakage profile / stability under osmotic gradients [6]: no difference in osmotic induced release
- osmotic leakage profile / stability under osmotic gradients ([6]; listed as ChcMaPC): good stability
- leakage profile of calcein from liposomes ([7]; 37° C., 4 weeks): remained intact
- leakage of calcein in 28 days ([7]; 28 days): less than 1%

Molecule: CCCCCCCCCCCCCCCCOCC(COP(=O)([O-])OCC[N+](C)(C)C)OC(=O)OC1CCC2(C)C(=CCC3C2CCC2(C)C(C(C)CCCC(C)C)CCC32)C1 (racemic) [SML4b, 1-Palmityl-2-cholesterylcarbonoyl-rac-glycero-3-phosphocholine]
- stability of formulation at 4° C. [2]: more than one year

Molecule: CC(C)CCC[C@@H](C)[C@H]1CC[C@H]2[C@@H]3CC=C4C[C@@H](O)CC[C@]4(C)[C@H]3CC[C@]12C [free cholesterol, cholesterol, reference compound]
- half time for cholesterol exchange ([1]; free cholesterol in a conventional liposome (Chol/DPPC/DPPG 40/50/10)): ~2 h
